Measured values published in patent US6150385A, “1,3,4-thiadiazoles useful for the treatment of CMV infections” (Pharmacia & Upjohn Company, priority 1999, dated 2000).

Target: T1, HCMV polymerase (Human cytomegalovirus, UniProt P08546)
T1 construct: made in house; host or cells: SF-9 insect cells infected with recombinant baculovirus
Test: HCMV polymerase assay (scintillation proximity assay)
Format: biochemical
Settings: percentage of inhibition at 25 μM concentration in CMV polymerase assay
How it was run: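 Baculovirus/SF-9-expressed HCMV polymerase in 5.4 mM HEPES pH 7.5, 11.7 mM KCl, 4.5 mM MgCl2, 0.36 mg/ml BSA, 90 nM 3H-dTTP, with or without 2 mM CHAPS. Started with 6 nM biotinylated poly(dA)-oligo(dT), 30 min at 25 or 37 °C, EDTA-stopped, read by streptavidin-SPA counting; % inhibition at 25 μM.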

T1 sequence (P08546 whole entry): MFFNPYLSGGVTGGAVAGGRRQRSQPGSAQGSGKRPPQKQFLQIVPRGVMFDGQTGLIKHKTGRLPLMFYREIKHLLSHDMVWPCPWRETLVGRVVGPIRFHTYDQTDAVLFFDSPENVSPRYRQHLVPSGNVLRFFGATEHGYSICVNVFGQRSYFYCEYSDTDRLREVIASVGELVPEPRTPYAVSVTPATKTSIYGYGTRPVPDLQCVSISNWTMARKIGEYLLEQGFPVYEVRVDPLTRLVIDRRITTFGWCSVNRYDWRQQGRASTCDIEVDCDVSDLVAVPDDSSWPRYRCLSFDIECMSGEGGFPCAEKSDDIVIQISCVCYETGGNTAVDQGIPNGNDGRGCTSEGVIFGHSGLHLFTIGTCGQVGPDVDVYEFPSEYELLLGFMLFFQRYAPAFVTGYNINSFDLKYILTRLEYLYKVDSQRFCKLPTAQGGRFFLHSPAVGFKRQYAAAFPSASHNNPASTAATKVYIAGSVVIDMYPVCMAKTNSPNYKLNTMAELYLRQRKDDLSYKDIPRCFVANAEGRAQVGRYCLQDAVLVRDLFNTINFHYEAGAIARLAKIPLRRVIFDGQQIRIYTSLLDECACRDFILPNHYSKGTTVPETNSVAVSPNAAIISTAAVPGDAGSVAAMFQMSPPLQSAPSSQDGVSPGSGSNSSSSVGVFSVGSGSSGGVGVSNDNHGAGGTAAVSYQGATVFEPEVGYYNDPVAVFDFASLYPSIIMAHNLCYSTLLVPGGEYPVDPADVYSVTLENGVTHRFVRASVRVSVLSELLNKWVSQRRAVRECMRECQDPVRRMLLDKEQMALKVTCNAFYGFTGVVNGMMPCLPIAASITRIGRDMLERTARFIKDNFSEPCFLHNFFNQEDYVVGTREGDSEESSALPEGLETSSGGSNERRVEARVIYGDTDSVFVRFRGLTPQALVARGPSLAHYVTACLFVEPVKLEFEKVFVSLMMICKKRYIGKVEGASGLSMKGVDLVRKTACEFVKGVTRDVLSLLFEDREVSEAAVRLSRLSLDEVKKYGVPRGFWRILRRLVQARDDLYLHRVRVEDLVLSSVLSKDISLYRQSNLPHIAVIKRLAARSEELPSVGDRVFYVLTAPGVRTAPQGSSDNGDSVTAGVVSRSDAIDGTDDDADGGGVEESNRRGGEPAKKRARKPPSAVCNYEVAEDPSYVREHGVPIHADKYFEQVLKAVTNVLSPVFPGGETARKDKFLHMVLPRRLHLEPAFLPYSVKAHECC

With `O=C(Nc1nnc(NC2CCCCCC2)s1)c1ccc(S(=O)(=O)F)cc1` [compound 278, 4-({[5-(cycloheptylamino)-1,3,4-thiadiazol-2-yl]amino}carbonyl)benzenesulfonyl fluoride] the “% Inhib” value was 37.5%.

In order of rising inhibition at 25 µM:
1. O=C(CCCCCl)Nc1nnc(NC2CCCCCC2)s1 [compound 316, 5-chloro-N-[5-(cycloheptylamino)-1,3,4-thiadiazol-2-yl]pentanamide]  33.6%
2. CC(C)c1cc(C(C)C)c(C(=O)Nc2nnc(NCCc3c[nH]cn3)s2)c(C(C)C)c1 [compound 317, N-(5-{[2-(1H-imidazol-4-yl)ethyl]amino}-1,3,4-thiadiazol-2-yl)-2,4,6-triisopropylbenzamide]  33.6%
3. CCOc1ccc2ccccc2c1C(=O)Nc1nnc(NCCSCC)s1 [compound 318, 2-ethoxy-N-(5-{[2-(ethylsulfanyl)ethyl]amino}-1,3,4-thiadiazol-2-yl)-1-naphthamide]  33.6%
4. CCOc1ccc2ccccc2c1C(=O)Nc1nnc(NC2CCC2)s1 [compound 314, N-[5-(cyclobutylamino)-1,3,4-thiadiazol-2-yl]-2-ethoxy-1-naphthamide]  33.8%
5. O=C(CCCCCl)Nc1nnc(NCC2CCCCC2)s1 [compound 315, 5-chloro-N-{5-[(cyclohexylmethyl)amino]-1,3,4-thiadiazol-2-yl}pentanamide]  33.8%
6. NS(=O)(=O)c1ccc(CNc2nnc(NC(=O)c3ccc(Cl)c(Cl)c3)s2)cc1 [compound 311, N-(5-{[4-(aminosulfonyl)benzyl]amino}-1,3,4-thiadiazol-2-yl)-3,4-dichlorobenzamide]  33.9%
7. CC1(C)C2CC[C@@H](CNc3nnc(NC(=O)CCCCCl)s3)C1C2 (stereo partly drawn) [compound 312, 5-chloro-N-[5-({[(2R)-6,6-dimethylbicyclo[3.1.1]hept-2-yl]methyl}amino)-1,3,4-thiadiazol-2-yl]pentanamide]  33.9%
8. CCCCCCCC/C=C/CCCCCCCC(=O)Nc1nnc(NCc2ccc(Cl)c(Cl)c2)s1 [compound 313, (E)-N-{5-[(3,4-dichlorobenzyl)amino]-1,3,4-thiadiazol-2-yl}-9-octadecenamide]  33.9%
9. CCSCCNc1nnc(NC(=O)c2ccc(Br)cc2)s1 [compound 309, 4-bromo-N-(5-{[2-(ethylsulfanyl)ethyl]amino}-1,3,4-thiadiazol-2-yl)benzamide]  34%
10. COc1ccccc1C(=O)Nc1nnc(NC2CCCCCC2)s1 [compound 310, N-[5-(cycloheptylamino)-1,3,4-thiadiazol-2-yl]-2-methoxybenzamide]  34%
11. CC1(C)C2CC[C@@H](CNc3nnc(NC(=O)c4ccc(C#N)cc4)s3)C1C2 (stereo partly drawn) [compound 307, 4-cyano-N-[5-({[(2R)-6,6-dimethylbicyclo[3.1.1]hept-2-yl]methyl}amino)-1,3,4-thiadiazol-2-yl]benzamide]  34.2%
12. O=C(Nc1nnc(NCCc2ccccc2)s1)c1ccc(Cl)cc1Cl [compound 308, 2,4-dichloro-N-[5-(phenethylamino)-1,3,4-thiadiazol-2-yl]benzamide]  34.2%
13. O=C(Nc1nnc(NCC(c2ccccc2)c2ccccc2)s1)c1ccc([N+](=O)[O-])o1 [compound 306, N-{5-[(2,2-diphenylethyl)amino]-1,3,4-thiadiazol-2-yl}-5-nitro-2-furamide]  34.4%
14. O=C(Nc1nnc(NCc2ccc3c(c2)OCO3)s1)c1ccc(F)cc1F [compound 305, N-{5-[(1,3-benzodioxol-5-ylmethyl)amino]-1,3,4-thiadiazol-2-yl}-2,4-difluorobenzamide]  34.5%
15. COc1ccccc1C(=O)Nc1nnc(NCC2CCCCC2)s1 [compound 304, N-{5-[(cyclohexylmethyl)amino]-1,3,4-thiadiazol-2-yl}-2-methoxybenzamide]  34.6%
16. COc1ccccc1C(=O)Nc1nnc(NCCc2c[nH]c3ccccc23)s1 [compound 303, N-(5-{[2-(1H-indol-3-yl)ethyl]amino}-1,3,4-thiadiazol-2-yl)-2-methoxybenzamide]  34.7%
17. O=C(Nc1nnc(NCc2cccnc2)s1)c1cc2ccccc2s1 [compound 301, N-{5-[(3-pyridinylmethyl)amino]-1,3,4-thiadiazol-2-yl}-1-benzothiophene-2-carboxamide]  34.8%
18. O=C(Nc1nnc(NCc2ccc(F)cc2)s1)c1cccc([N+](=O)[O-])c1 [compound 302, N-{5-[(4-fluorobenzyl)amino]-1,3,4-thiadiazol-2-yl}-3-nitrobenzamide]  34.8%
19. CC(C)c1cc(C(C)C)c(C(=O)Nc2nnc(NCCC(c3ccccc3)c3ccccc3)s2)c(C(C)C)c1 [compound 299, N-{5-[(3,3-diphenylpropyl)amino]-1,3,4-thiadiazol-2-yl}-2,4,6-triisopropylbenzamide]  34.9%
20. O=C(Nc1nnc(NC2CCCCCC2)s1)c1cc(F)cc(F)c1 [compound 300, N-[5-(cycloheptylamino)-1,3,4-thiadiazol-2-yl]-3,5-difluorobenzamide]  34.9%
21. O=C(Nc1nnc(NCCC(c2ccccc2)c2ccccc2)s1)c1ccc(I)cc1 [compound 297, N-{5-[(3,3-diphenylpropyl)amino]-1,3,4-thiadiazol-2-yl}-4-iodobenzamide]  35%
22. O=C(Nc1nnc(NCCC(c2ccccc2)c2ccccc2)s1)c1ccc([N+](=O)[O-])o1 [compound 298, N-{5-[(3,3-diphenylpropyl)amino]-1,3,4-thiadiazol-2-yl}-5-nitro-2-furamide]  35%
23. O=C(Nc1nnc(NCCCN2CCCC2=O)s1)c1ccc([N+](=O)[O-])o1 [compound 296, 5-nitro-N-(5-{[3-(2-oxo-1-pyrrolidinyl)propyl]amino}-1,3,4-thiadiazol-2-yl)-2-furamide]  35.1%
24. O=C(/C=C/c1ccccc1Cl)Nc1nnc(NCCNc2ccccc2)s1 [compound 294, (E)-N-{5-[(2-anilinoethyl)amino]-1,3,4-thiadiazol-2-yl}-3-(2-chlorophenyl)-2-propenamide]  35.4%
25. O=C(Nc1nnc(NCCc2c[nH]c3ccccc23)s1)c1ccc(Cl)c(Cl)c1 [compound 295, 3,4-dichloro-N-(5-{[2-(1H-indol-3-yl)ethyl]amino}-1,3,4-thiadiazol-2-yl)benzamide]  35.4%
26. CCOc1ccc2ccccc2c1C(=O)Nc1nnc(NCCC(=O)OC(C)(C)C)s1 [compound 293, tert-butyl 3-[(5-{[(2-ethoxy-1-naphthyl)carbonyl]amino}-1,3,4-thiadiazol-2-yl)amino]propanoate]  35.5%
27. CCSCCNc1nnc(NC(=O)c2c(Cl)cccc2Cl)s1 [compound 292, 2,6-dichloro-N-(5-{[2-(ethylsulfanyl)ethyl]amino}-1,3,4-thiadiazol-2-yl)benzamide]  35.6%
28. O=C(Nc1nnc(NCCNc2ccccc2)s1)c1cccc([N+](=O)[O-])c1 [compound 291, N-{5-[(2-anilinoethyl)amino]-1,3,4-thiadiazol-2-yl}-3-nitrobenzamide]  35.7%
29. O=C(/C=C/c1ccccc1)Nc1nnc(NC2CCN(Cc3ccccc3)CC2)s1 [compound 290, (E)-N-{5-[(1-benzyl-4-piperidinyl)amino]-1,3,4-thiadiazol-2-yl}-3-phenyl-2-propenamide]  35.9%
30. O=C(Nc1nnc(NCc2ccncc2)s1)c1ccc(I)cc1 [compound 289, 4-iodo-N-{5-[(4-pyridinylmethyl)amino]-1,3,4-thiadiazol-2-yl}benzamide]  36%
31. O=C(Nc1nnc(NC2CC2)s1)c1cc2ccccc2s1 [compound 287, N-[5-(cyclopropylamino)-1,3,4-thiadiazol-2-yl]-1-benzothiophene-2-carboxamide]  36.2%
32. O=C(Nc1nnc(NC2CCCCCC2)s1)c1ccc(I)cc1 [compound 288, N-[5-(cycloheptylamino)-1,3,4-thiadiazol-2-yl]-4-iodobenzamide]  36.2%
33. CCCCCCCC/C=C/CCCCCCCC(=O)Nc1nnc(NCC(CC)CCCC)s1 (centres unmarked) [compound 286, (E)-N-{5-[(2-ethylhexyl)amino]-1,3,4-thiadiazol-2-yl}-9-octadecenamide]  36.3%
34. O=C(Nc1nnc(NCCc2c[nH]c3ccccc23)s1)c1ccc(C(F)(F)F)cc1 [compound 284, N-(5-{[2-(1H-indol-3-yl)ethyl]amino}-1,3,4-thiadiazol-2-yl)-4-(trifluoromethyl)benzamide]  36.7%
35. CCCCCCCC/C=C/CCCCCCCC(=O)Nc1nnc(NCC2CCCCC2)s1 [compound 285, (E)-N-{5-[(cyclohexylmethyl)amino]-1,3,4-thiadiazol-2-yl}-9-octadecenamide]  36.7%
36. CCCCC(CC)CNc1nnc(NC(=O)c2c(Cl)cccc2Cl)s1 (centres unmarked) [compound 283, 2,6-dichloro-N-{5-[(2-ethylhexyl)amino]-1,3,4-thiadiazol-2-yl}benzamide]  37%
37. O=C(Nc1nnc(NCCc2ccccc2)s1)c1ccc([N+](=O)[O-])o1 [compound 282, 5-nitro-N-[5-(phenethylamino)-1,3,4-thiadiazol-2-yl]-2-furamide]  37.1%
38. COc1ccc(CNc2nnc(NC(=O)c3c(Cl)cccc3Cl)s2)cc1OC [compound 280, 2,6-dichloro-N-{5-[(3,4-dimethoxybenzyl)amino]-1,3,4-thiadiazol-2-yl}benzamide]  37.3%
39. O=C(Nc1nnc(NCCC(c2ccccc2)c2ccccc2)s1)c1cc(F)cc(F)c1 [compound 281, N-{5-[(3,3-diphenylpropyl)amino]-1,3,4-thiadiazol-2-yl}-3,5-difluorobenzamide]  37.3%
40. CCCCCCCC/C=C/CCCCCCCC(=O)Nc1nnc(NC2CCc3ccccc32)s1 (centres unmarked) [compound 279, (E)-N-[5-(2,3-dihydro-1H-inden-1-ylamino)-1,3,4-thiadiazol-2-yl]-9-octadecenamide]  37.4%
